Values of other authors as cited in paper PMC6709472 (Antimicrobial Agents and Chemotherapy, 2019).

Assays:
[1] = tested on: visceral leishmaniasis (VL); conditions: 12.5 mg/kg of body weight orally twice a day; hamster models of VL
[2] = read-out: 50% effective concentration [EC50]; in vitro activity quoted for VL development

## O=[N+]([O-])c1cn2c(n1)O[C@@H](COc1ccc(-c3ccc(F)cc3)nc1)CC2 [DNDI-0690]
[1]
  in vivo efficacy: > 99%
[2]
  EC50: 0.17 µM
